Here are results for 9 compounds from US8269019B2, “Inhibitors” (Probiodrug AG, priority 2010, dated 2012).

Chain of hQC (Q16769 29-361): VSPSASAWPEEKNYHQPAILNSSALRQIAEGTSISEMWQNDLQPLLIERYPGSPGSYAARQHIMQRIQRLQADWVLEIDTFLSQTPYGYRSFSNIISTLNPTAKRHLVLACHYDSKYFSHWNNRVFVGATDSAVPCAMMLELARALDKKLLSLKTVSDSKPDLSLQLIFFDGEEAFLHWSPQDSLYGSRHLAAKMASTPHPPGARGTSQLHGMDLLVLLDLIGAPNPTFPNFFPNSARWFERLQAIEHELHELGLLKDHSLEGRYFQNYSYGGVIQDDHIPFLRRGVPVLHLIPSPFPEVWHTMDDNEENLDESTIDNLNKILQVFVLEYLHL

For this assay, the target named is hQC (Homo sapiens, UniProt Q16769). Put plainly: QC inhibitor assay (hQC inhibition, Ki and IC50). The assay is classed as biochemical. As to the method:
All measurements were performed with a BioAssay Reader HTS-7000Plus for microplates (Perkin Elmer) at 30° C. QC activity was evaluated fluorometrically using H-Gln-βNA. The samples consisted of 0.2 mM fluorogenic substrate, 0.25 U pyroglutamyl aminopeptidase (Unizyme, Hørsholm, Denmark) in 0.2 M Tris/HCl, pH 8.0 containing 20 mM EDTA and an appropriately diluted aliquot of QC in a final volume of 250 μl. Excitation/emission wavelengths were 320/410 nm. The assay reactions were initiated by addition of glutaminyl cyclase. QC activity was determined from a standard curve of β-naphthylamine under assay conditions. One unit is defined as the amount of QC catalyzing the formation of 1 μmol pGlu-βNA from H-Gln-βNA per minute under the described conditions.
In a second fluorometric assay, QC was activity determined using H-Gln-AMC as substrate. Reactions were carried out at 30° C. utilizing the NOVOStar reader for microplates (BMG labtechnologies). The samples consisted of varying concentrations of the fluorogenic substrate, 0.1 U pyroglutamyl aminopeptidase (Qiagen) in 0.05 M Tris/HCl, pH 8.0 containing 5 mM EDTA and an appropriately diluted aliquot of QC in a final volume of 250 μl. Excitation/emission wavelengths were 380/460 nm. The assay reactions were initiated by addition of glutaminyl cyclase. QC activity was determined from a standard curve of 7-amino-4-methylcoumarin under assay conditions. The kinetic data were evaluated using GraFit sofware.
This novel assay was used to determine the kinetic parameters for most of the QC substrates. QC activity was analyzed spectrophotometrically using a continuous method, that was derived by adapting a previous discontinuous assay (Bateman, R. C. J. 1989 J Neurosci Methods 30, 23-28) utilizing glutamate dehydrogenase as auxiliary enzyme. Samples consisted of the respective QC substrate, 0.3 mM NADH, 14 mM α-Ketoglutaric acid and 30 U/ml glutamate dehydrogenase in a final volume of 250 μl. Reactions were started by addition of QC and persued by monitoring of the decrease in absorbance at 340 nm for 8-15 min.
The initial velocities were evaluated and the enzymatic activity was determined from a standard curve of ammonia under assay conditions. All samples were measured at 30° C., using either the SPECTRAFIuor Plus or the Sunrise (both from TECAN) reader for microplates. Kinetic data was evaluated using GraFit software.
For inhibitor testing, the sample composition was the same as described above, except of the putative inhibitory compound added. For a rapid test of QC-inhibition, samples contained 4 mM of the respective inhibitor and a substrate concentration at 1 KM. For detailed investigations of the inhibition and determination of Ki-values, influence of the inhibitor on the auxiliary enzymes was investigated first. In every case, there was no influence on either enzyme detected, thus enabling the reliable determination of the QC inhibition. The inhibitory constant was evaluated by fitting the set of progress curves to the general equation for competitive inhibition using GraFit software.
The compound `COC1=C(C)[C@H](c2cccc(F)c2F)N(c2ccc3nc[nH]c3c2)C1=O` (single isomer, unassigned) [Example 9] had an IC50 of 18.7 nM and an inhibition constant Ki of 4.7 nM.

Compound `COC1=C(C)[C@@H](c2cccc(F)c2F)N(c2ccc3nc[nH]c3c2)C1=O` (single isomer, unassigned) [Example 10] came in with a half-maximal inhibitory concentration (IC50) of 169 nM and an inhibitory constant (Ki) of 32.3 nM.

Regarding `COC1=C(c2ccccc2)C(c2cc(F)cc(F)c2F)N(c2ccc3[nH]cnc3c2)C1=O` (stereo not drawn) [Example 5, 1-(1H-Benzo[d]imidazol-5-yl)-5-(2,3,5-trifluorophenyl)-3-methoxy-4-phenyl-1H-pyrrol-2(5H)-one], it took 317 nM to reach half-maximal inhibition (IC50) and the inhibitory constant (Ki) was 54.9 nM.

For the compound `COC1=C(C)C(c2cccc(F)c2F)N(c2ccc3nc[nH]c3c2)C1=O` (stereo not drawn) [Example 8, 1-(1H-Benzo[d]imidazol-6-yl)-5-(2,3-difluorophenyl)-3-methoxy-4-methyl-1H-pyrrol-2(5H)-one], half-maximal inhibition (IC50) was put at 117 nM and the Ki worked out at 20.9 nM.

As to `COC1=C(C)C(c2cccc(Cl)c2Cl)N(c2ccc3[nH]cnc3c2)C1=O` (stereo not drawn) [Example 17, 1-(1H-Benzo[d]imidazol-6-yl)-5-(2,3-dichlorophenyl)-3-methoxy-4-methyl-1H-pyrrol-2(5H)-one], the IC50 worked out at 557 nM and affinity was put at a Ki of 46.6 nM.

With `COC1=C(C)C(c2ccc(C3CCCCC3)cc2)N(c2ccc3nc[nH]c3c2)C1=O` (stereo not drawn) [Example 25, 1-(1H-Benzo[d]imidazol-6-yl)-5-(4-cyclohexylphenyl)-3-methoxy-4-methyl-1H-pyrrol-2(5H)-one], the IC50 amounted to 195 nM and the Ki is 45.3 nM.

With `COC1=C(C)C(c2ccc(C3CCC(F)(F)CC3)cc2)N(c2ccc3nc[nH]c3c2)C1=O` (stereo not drawn) [Example 26, 1-(1H-Benzo[d]imidazol-6-yl)-5-(4-(4,4-difluorocyclohexyl)phenyl)-3-methoxy-4-methyl-1H-pyrrol-2(5H)-one], the half-maximal inhibitory concentration (IC50) came to 292 nM and the inhibition constant Ki stood at 36.2 nM.

In turn, `COC1=C(C)C(c2ccc(C3CCC(N4CCOCC4)CC3)cc2)N(c2ccc3nc[nH]c3c2)C1=O` (stereo not drawn) [Example 29, 1-(1H-Benzo[d]imidazol-6-yl)-3-methoxy-4-methyl-5-(4-(4-morpholinocyclo-hexyl)phenyl)-1H-pyrrol-2(5H)-one] gave a half-inhibitory concentration (IC50) of 221 nM and a Ki of 18.7 nM.

Consider `COC1=C(C)C(C2CCC(c3ccccc3)CC2)N(c2ccc3nc[nH]c3c2)C1=O` (stereo not drawn) [Example 32, 1-(1H-Benzo[d]imidazol-6-yl)-3-methoxy-4-methyl-5-(4-phenylcyclohexyl)-1H-pyrrol-2(5H)-one], for which the IC50 came to 821 nM and the Ki is 164 nM.
